# Measured values: patent US11572590B2, “Methods for evaluating tumor cell spheroids using 3D microfluidic cell culture device” (Dana-Farber Cancer Institute, Inc., priority 2017, dated 2023)
# Like-named read-outs stand apart in the source and are kept apart here.
# Legend:
# Assay in all cases: SelectScreen Kinase Profiling, single point inhibition and IC50 for off-target kinases
# Assay type in all cases: biochemical
# off-target kinases [1] = target: off-target kinases (Homo sapiens, UniProt P42685); conditions: FRK (PTK5), ZLYTE, ATP Km app
# off-target kinases (Homo sapiens, UniProt P42685), sequence (P42685 whole entry): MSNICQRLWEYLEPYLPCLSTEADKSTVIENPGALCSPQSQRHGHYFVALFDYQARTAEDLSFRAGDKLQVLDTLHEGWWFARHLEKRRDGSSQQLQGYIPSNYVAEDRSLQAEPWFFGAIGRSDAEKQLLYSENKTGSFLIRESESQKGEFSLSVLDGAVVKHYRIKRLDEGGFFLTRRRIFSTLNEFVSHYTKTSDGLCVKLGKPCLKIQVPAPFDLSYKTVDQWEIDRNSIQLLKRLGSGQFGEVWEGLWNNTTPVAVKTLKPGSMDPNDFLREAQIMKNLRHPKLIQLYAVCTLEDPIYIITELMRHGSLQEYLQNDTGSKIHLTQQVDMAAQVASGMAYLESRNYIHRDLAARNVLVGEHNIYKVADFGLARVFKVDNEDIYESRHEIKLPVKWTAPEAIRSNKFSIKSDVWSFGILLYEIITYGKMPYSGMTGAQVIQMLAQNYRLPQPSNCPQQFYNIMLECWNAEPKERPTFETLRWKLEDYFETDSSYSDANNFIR
# off-target kinases [2] = target: off-target kinases (Homo sapiens, UniProt Q96RG2); conditions: PASK, ZLYTE, ATP Km app
# off-target kinases (Homo sapiens, UniProt Q96RG2), sequence (Q96RG2 whole entry): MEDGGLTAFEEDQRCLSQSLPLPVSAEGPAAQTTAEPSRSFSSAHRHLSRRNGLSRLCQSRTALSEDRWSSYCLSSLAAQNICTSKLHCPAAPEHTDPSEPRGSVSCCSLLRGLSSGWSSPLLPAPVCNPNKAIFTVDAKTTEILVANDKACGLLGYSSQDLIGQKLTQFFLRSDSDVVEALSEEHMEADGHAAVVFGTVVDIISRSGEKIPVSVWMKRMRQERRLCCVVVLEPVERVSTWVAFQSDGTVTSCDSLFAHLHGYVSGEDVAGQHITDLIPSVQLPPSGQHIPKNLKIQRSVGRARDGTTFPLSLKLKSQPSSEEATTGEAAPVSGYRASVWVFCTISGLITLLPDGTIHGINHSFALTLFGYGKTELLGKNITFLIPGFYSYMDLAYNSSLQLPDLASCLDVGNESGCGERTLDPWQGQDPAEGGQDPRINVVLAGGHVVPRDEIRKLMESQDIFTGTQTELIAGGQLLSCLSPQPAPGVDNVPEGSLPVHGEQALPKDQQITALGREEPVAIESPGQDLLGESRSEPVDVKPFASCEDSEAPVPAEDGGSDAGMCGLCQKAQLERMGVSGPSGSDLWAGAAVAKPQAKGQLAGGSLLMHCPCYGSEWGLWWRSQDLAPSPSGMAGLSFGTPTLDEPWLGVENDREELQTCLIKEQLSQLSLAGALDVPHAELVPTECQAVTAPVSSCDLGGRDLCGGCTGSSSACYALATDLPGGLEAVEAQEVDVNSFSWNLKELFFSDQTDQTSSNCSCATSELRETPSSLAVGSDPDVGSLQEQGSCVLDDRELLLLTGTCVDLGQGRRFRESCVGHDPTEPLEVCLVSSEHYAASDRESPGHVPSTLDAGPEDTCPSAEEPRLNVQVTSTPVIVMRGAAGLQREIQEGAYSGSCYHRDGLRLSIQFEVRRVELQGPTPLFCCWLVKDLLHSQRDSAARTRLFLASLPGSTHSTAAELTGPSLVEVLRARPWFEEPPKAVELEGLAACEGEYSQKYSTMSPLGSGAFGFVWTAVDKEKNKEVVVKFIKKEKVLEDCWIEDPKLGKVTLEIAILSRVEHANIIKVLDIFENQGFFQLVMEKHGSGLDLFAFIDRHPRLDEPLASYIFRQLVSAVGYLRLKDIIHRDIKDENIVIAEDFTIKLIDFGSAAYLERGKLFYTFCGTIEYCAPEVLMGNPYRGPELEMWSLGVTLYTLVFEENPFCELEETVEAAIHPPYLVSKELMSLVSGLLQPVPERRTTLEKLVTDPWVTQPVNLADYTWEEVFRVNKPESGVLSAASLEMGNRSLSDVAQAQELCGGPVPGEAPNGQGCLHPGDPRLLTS
# off-target kinases [3] = target: T1, off-target kinases (Homo sapiens, UniProt O15111); conditions: CHUK (IKK alpha), ATP Km app, Adapta
# T1 sequence (O15111 1-745): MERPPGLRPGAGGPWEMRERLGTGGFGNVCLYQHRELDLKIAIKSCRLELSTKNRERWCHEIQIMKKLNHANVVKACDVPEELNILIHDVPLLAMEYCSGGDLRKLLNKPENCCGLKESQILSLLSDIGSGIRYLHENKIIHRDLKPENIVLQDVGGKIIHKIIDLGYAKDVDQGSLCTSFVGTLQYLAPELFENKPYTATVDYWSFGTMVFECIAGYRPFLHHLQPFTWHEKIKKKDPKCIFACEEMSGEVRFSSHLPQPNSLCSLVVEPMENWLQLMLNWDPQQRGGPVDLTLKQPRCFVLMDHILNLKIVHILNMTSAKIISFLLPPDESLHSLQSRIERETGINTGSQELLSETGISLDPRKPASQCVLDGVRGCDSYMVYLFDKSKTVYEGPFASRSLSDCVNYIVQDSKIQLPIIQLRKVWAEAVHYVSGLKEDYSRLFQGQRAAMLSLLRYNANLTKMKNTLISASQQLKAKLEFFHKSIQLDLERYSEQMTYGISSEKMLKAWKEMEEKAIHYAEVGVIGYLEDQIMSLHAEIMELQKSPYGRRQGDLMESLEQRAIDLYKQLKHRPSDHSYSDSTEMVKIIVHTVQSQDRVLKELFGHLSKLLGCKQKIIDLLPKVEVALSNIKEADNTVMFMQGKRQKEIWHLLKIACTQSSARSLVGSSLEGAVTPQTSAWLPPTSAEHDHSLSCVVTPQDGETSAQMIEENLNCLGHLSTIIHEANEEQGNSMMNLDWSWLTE
# off-target kinases [4] = target: off-target kinases (Homo sapiens, UniProt P53667); conditions: LIMK1, LanthaScreen Binding
# off-target kinases (Homo sapiens, UniProt P53667), sequence (P53667 whole entry): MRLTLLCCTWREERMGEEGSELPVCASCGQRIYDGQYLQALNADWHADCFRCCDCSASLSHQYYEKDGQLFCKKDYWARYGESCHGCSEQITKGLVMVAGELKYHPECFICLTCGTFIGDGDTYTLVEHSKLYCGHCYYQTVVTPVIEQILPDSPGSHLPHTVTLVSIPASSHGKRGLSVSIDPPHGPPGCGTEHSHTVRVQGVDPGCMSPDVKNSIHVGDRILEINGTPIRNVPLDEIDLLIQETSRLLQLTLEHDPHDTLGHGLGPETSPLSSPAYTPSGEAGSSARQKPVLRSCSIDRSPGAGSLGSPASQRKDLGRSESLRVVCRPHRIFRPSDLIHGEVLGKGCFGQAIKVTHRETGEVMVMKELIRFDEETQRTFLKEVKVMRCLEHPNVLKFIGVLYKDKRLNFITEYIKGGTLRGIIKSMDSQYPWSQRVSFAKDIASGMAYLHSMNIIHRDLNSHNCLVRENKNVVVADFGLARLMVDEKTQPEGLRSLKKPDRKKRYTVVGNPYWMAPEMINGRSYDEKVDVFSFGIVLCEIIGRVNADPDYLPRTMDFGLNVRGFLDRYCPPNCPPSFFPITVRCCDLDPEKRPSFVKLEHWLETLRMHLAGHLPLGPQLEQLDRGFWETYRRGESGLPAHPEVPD
smiles,measurement,setting,value
"N#Cc1cc(-c2ncnc(Nc3ccc(N4CCN(C5COC5)CC4)cc3)n2)ccc1OC1CCOCC1 [Compound 1, 5-(4-((4-(4-(oxetan-3-yl)piperazin-1-yl)phenyl)amino)-1,3,5-triazin-2-yl)-2-((tetrahydro-2H-pyran-4-yl)oxy)benzonitrile]",inhibition,off-target kinases [1]; read-out: % Inhibition 1,11%
same,inhibition,off-target kinases [1]; read-out: % Inhibition 2,13%
same,inhibition,off-target kinases [1]; read-out: % Inhibition Avg,12%
same,inhibition,off-target kinases [2]; read-out: % Inhibition 1,3%
same,inhibition,off-target kinases [2]; read-out: % Inhibition 2,1%
same,inhibition,off-target kinases [2]; read-out: % Inhibition Avg,2%
same,inhibition,off-target kinases [3]; read-out: % Inhibition 1,65%
same,inhibition,off-target kinases [3]; read-out: % Inhibition 2,50%
same,inhibition,off-target kinases [3]; read-out: % Inhibition Avg,58%
same,inhibition,off-target kinases [4]; read-out: % Inhibition 1,40%
same,inhibition,off-target kinases [4]; read-out: % Inhibition 2,39%
same,inhibition,off-target kinases [4]; read-out: % Inhibition Avg,40%
